What was measured:
Format in all cases: in vivo
[1] = system: Echinochloa crus-galli; assay: Submerged treatment test; conditions: 10 g/a active ingredient, treated 5th day from sowing, examined on the 2.8th day from treatment, herbicidal index
Description: (§1) Alluvial soil from a paddy field was put in a resin-made pot having an area of 200 cm^2. After fertilization, an adequate amount of water was added, and the soil was puddled and leveled. Seeds of Echinochloa crus-galli, Monochoria vaginalis, Rotala indica and Scirpus juncoides were sowed within a layer 0.5 cm below the surface of the soil. Water was poured onto the soil to keep a water depth of 3.5 cm.
(§2) On the 5th day from the sowing, the emulsifiable concentrate containing the compound of the invention as an active ingredient which was prepared in Formulation Example 3 was diluted with water. A prescribed amount of the diluted composition was dropped to the water so as to give 10 g of the active ingredient per are.
(§3) Cultivation was continued in a greenhouse, and the herbicidal effect was examined on the […] from the treatment. The results obtained are shown in Table 4 (the compound numbers in Table 4 correspond to those in Tables 1 and 2). The herbicidal effect was evaluated in terms of herbicidal index based on Y(%) obtained from equation:
(§4) y=[1−(Weight of weeds above the ground in a treated pot)/(Weight of weeds above the ground in a non-treated pot)]×100 (%)

[2] = system: Monochoria vaginalis; assay: Submerged treatment test; conditions: 10 g/a active ingredient, treated 5th day from sowing, examined on the 2.8th day from treatment, herbicidal index
Description: as §1, §2, §3, §4

[3] = system: Rotala indica; assay: Submerged treatment test; conditions: 10 g/a active ingredient, treated 5th day from sowing, examined on the 2.8th day from treatment, herbicidal index
Description: as §1, §2, §3, §4

[4] = system: Scirpus juncoides; assay: Submerged treatment test; conditions: 10 g/a active ingredient, treated 5th day from sowing, examined on the 2.8th day from treatment, herbicidal index
Description: as §1, §2, §3, §4

[5] = system: Chenopodium album; assay: Soil treatment test pre-emergence application; conditions: 10 g/a active ingredient, 28th day from treatment, herbicidal index
Description: (§5) Volcanic ash soil from a field was put in a resin-made pot having an area of 200 cm^2. After fertilization, soil previously mixed uniformly with the seeds of Digitaria ciliaris, Setaria viridis, Chenopodium album and Polygonum lapathifolium was scattered on the soil. The emulsifiable concentrate comprising the compound of the invention as an active ingredient which was obtained in Formulation Example 3 was diluted with water, and a prescribed amount of the diluted composition was sprayed uniformly to the surface of the soil by means of a small-sized power pressure spray to give 10 g of the active ingredient per are.
(§6) Thereafter, cultivation was continued in a greenhouse, and the herbicidal effect was examined on the 28th day from the treatment. The results obtained are shown in Table 5 (the compound numbers in Table 5 correspond to those in Tables 1 and 2). The herbicidal effect was evaluated based on the same criteria as in Test Example 1.

[6] = system: Digitaria ciliaris; assay: Soil treatment test pre-emergence application; conditions: 10 g/a active ingredient, 28th day from treatment, herbicidal index
Description: as §5, §6

[7] = system: Polygonum lapathifolium; assay: Soil treatment test pre-emergence application; conditions: 10 g/a active ingredient, 28th day from treatment, herbicidal index
Description: as §5, §6

[8] = system: Setaria viridis; assay: Soil treatment test pre-emergence application; conditions: 10 g/a active ingredient, 28th day from treatment, herbicidal index
Description: as §5, §6

[9] = system: Alopeculus aequalis; assay: Foliar treatment test (1) post-emergence application; conditions: foliar treatment post-emergence at 1.0- to 2.0-leaf stage, 10 g/a active ingredient, 21st day from treatment; herbicidal index
Description: (§7) Volcanic ash soil from a field was put in a resin-made pot having an area of 200 cm^2. After fertilization, the seeds of Brassica juncea, Ipomoea purpurea, Echinochloa crus-galli and Alopeculus aequalis were cast on the soil and uniformly covered with the soil.
(§8) Cultivation was continued in a greenhouse, and when the weeds reached the 1.0- to 2.0-leaf stage, a prescribed amount of the emulsifiable concentrate comprising the compound of the invention as an active ingredient which was prepared in Formulation Example 3 as diluted with water was sprayed uniformly to the weeds by means of a small-sized power pressure spray to give 10 g of the active ingredient per are.
(§9) Thereafter, cultivation was further continued in the greenhouse, and the herbicidal effect was examined on the 21st day from the treatment. The results obtained are shown in Table 6 (the compound numbers in Table 6 correspond to those in Tables 1 and 2). The herbicidal effect was evaluated based on the same criteria as in Test Example 1.

[10] = system: Brassica juncea; assay: as above; conditions: foliar treatment post-emergence at 1.0- to 2.0-leaf stage, 10 g/a active ingredient, 21st day from treatment; herbicidal index
Description: as §7, §8, §9

[11] = system: Echinochloa crus-galli; assay: as above; conditions: foliar treatment post-emergence at 1.0- to 2.0-leaf stage, 10 g/a active ingredient, 21st day from treatment; herbicidal index
Description: as §7, §8, §9

[12] = system: Ipomoea purpurea; assay: as above; conditions: foliar treatment post-emergence at 1.0- to 2.0-leaf stage, 10 g/a active ingredient, 21st day from treatment; herbicidal index
Description: as §7, §8, §9
Note: ranges in brackets are in %.

CCCOC(=O)C(Cl)Cc1cc(N2C(=O)c3ccccc3C2=O)c(F)cc1Cl (stereo not drawn) [Compound 6]
5 (91-100): Herbicidal Effect Echinochloa crus-galli [1] | Herbicidal Effect Monochoria vaginalis [2] | Herbicidal Effect Rotala indica [3] | Herbicidal Effect Scirpus juncoides [4] | Herbicidal Effect Chenopodium album [5] | Herbicidal Effect Polygonum lapathifolium [7] | Herbicidal Effect Brassica juncea [10] | Herbicidal Effect Ipompoea-purpurea [12]
2 (31-50): Herbicidal Effect Alopeculus sequalis [9] | Herbicidal Effect Echinochloa crus-galli [11]
0 (0-5): Herbicidal Effect Digitaria ciliaris [6] | Herbicidal Effect Setaria viridis [8]

CC(C)OC(=O)C(Cl)Cc1cc(N2C(=O)c3ccccc3C2=O)c(F)cc1Cl (stereo not drawn) [Compound 7, Isopropyl 2-Chloro-3-(2-chloro-4-fluoro-5-phthalimidophenyl)propionate]
2 (31-50): Herbicidal Effect Alopeculus sequalis [9]
3 (51-70): Herbicidal Effect Echinochloa crus-galli [11]
5 (91-100): Herbicidal Effect Echinochloa crus-galli [1] | Herbicidal Effect Monochoria vaginalis [2] | Herbicidal Effect Rotala indica [3] | Herbicidal Effect Scirpus juncoides [4] | Herbicidal Effect Chenopodium album [5] | Herbicidal Effect Polygonum lapathifolium [7] | Herbicidal Effect Brassica juncea [10] | Herbicidal Effect Ipompoea-purpurea [12]
1 (6-30): Herbicidal Effect Digitaria ciliaris [6] | Herbicidal Effect Setaria viridis [8]

C=CCNC(=O)C(Cl)Cc1cc(N2C(=O)c3ccccc3C2=O)c(F)cc1Cl (stereo not drawn) [Compound 12]
1 (6-30): Herbicidal Effect Scirpus juncoides [4]
2 (31-50): Herbicidal Effect Alopeculus sequalis [9]
5 (91-100): Herbicidal Effect Echinochloa crus-galli [1] | Herbicidal Effect Monochoria vaginalis [2] | Herbicidal Effect Rotala indica [3] | Herbicidal Effect Chenopodium album [5] | Herbicidal Effect Brassica juncea [10] | Herbicidal Effect Ipompoea-purpurea [12]
4 (71-90): Herbicidal Effect Digitaria ciliaris [6] | Herbicidal Effect Polygonum lapathifolium [7] | Herbicidal Effect Setaria viridis [8] | Herbicidal Effect Echinochloa crus-galli [11]

CN(C)C(=O)C(Cl)Cc1cc(N2C(=O)c3ccccc3C2=O)c(F)cc1Cl (stereo not drawn) [Compound 14]
3 (51-70): Herbicidal Effect Scirpus juncoides [4] | Herbicidal Effect Digitaria ciliaris [6] | Herbicidal Effect Setaria viridis [8] | Herbicidal Effect Echinochloa crus-galli [11]
5 (91-100): Herbicidal Effect Echinochloa crus-galli [1] | Herbicidal Effect Monochoria vaginalis [2] | Herbicidal Effect Rotala indica [3] | Herbicidal Effect Chenopodium album [5] | Herbicidal Effect Polygonum lapathifolium [7] | Herbicidal Effect Brassica juncea [10] | Herbicidal Effect Ipompoea-purpurea [12]
4 (71-90): Herbicidal Effect Alopeculus sequalis [9]

CCOC(=O)C(Cl)Cc1cc(N2C(=O)c3ccc(F)cc3C2=O)c(F)cc1Cl (stereo not drawn) [Compound 15, Ethyl 2-Chloro-3-[2-chloro-4-fluoro-5-(4-fluorophthalimido)phenyl]propionate]
2 (31-50): Herbicidal Effect Digitaria ciliaris [6] | Herbicidal Effect Setaria viridis [8]
5 (91-100): Herbicidal Effect Monochoria vaginalis [2] | Herbicidal Effect Rotala indica [3] | Herbicidal Effect Chenopodium album [5] | Herbicidal Effect Polygonum lapathifolium [7] | Herbicidal Effect Brassica juncea [10] | Herbicidal Effect Ipompoea-purpurea [12]
3 (51-70): Herbicidal Effect Scirpus juncoides [4]
4 (71-90): Herbicidal Effect Echinochloa crus-galli [1] | Herbicidal Effect Alopeculus sequalis [9] | Herbicidal Effect Echinochloa crus-galli [11]
